pIC50, pKi: −log10 of the molar value.
How the values were obtained:
[1] = Inhibition of chimpanzee P2Y14 receptor; set-up: species or system Pan troglodytes
P2Y purinoceptor 14 [2] = target: T1, P2Y purinoceptor 14 (Mus musculus, UniProt Q9ESG6); experiment: Inhibition of mouse P2Y14 receptor
T1 sequence (Q9ESG6 whole entry): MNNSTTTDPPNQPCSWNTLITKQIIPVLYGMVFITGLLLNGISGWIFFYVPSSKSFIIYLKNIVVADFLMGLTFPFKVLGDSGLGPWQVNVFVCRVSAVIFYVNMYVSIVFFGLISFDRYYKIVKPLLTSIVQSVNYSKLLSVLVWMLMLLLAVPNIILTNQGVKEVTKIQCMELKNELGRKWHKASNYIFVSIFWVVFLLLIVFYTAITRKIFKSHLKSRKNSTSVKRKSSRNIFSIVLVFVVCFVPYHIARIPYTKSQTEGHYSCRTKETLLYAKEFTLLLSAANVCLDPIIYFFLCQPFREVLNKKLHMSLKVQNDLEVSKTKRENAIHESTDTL

[3] = Clearance in C57BL/6 mouse at 50 mg/kg, po; format: ADME, organism-based; settings: in vivo
P2Y purinoceptor 14 [4] = target: T1, P2Y purinoceptor 14; experiment: Inhibition of mouse P2Y14 receptor in presence of 2% HSA
[5] = Half life in C57BL/6 mouse at 50 mg/kg, po; format: ADME, organism-based; settings: in vivo

Row | Structure (SMILES) | pIC50 [1] | pKi [1] | pKi (P2Y purinoceptor 14 [2]) | CL/F [3] | pKi (P2Y purinoceptor 14 [4]) | half-life [5]
1 | Cc1cc(F)cc(C)c1COc1ccc2c(-c3ccsc3)cc(C(=O)O)cc2c1 | 8.40 | 7.85 | – | – | – | –
2 | O=C(O)c1cc(-c2ccc([C@@H](O)C(F)F)cc2)c2ccc(-c3ccc(C(F)(F)F)cc3)cc2c1 | – | – | 8.40 | 1.6 mL/min/kg | 5.89 | 3 h
3 | O=C(O)c1cc(-c2ccc(C3CCNCC3)cc2)c2ccc(-c3ccc(C(F)(F)F)cc3)cc2c1 [PPTN] | – | 8.72 | – | – | – | –

— ChEMBL document CHEMBL4346722, “Recent progress on the discovery of P2Y14 receptor antagonists” (Eur J Med Chem, 2019)
